According to ChEMBL document CHEMBL5370665, “Insight from Linker Investigations: Discovery of a Novel Phenylbenzothiazole Necroptosis Inhibitor Targeting Receptor-Interacting Protein Kinase 1 (RIPK1) from a Phenoxybenzothiazole Compound with Dual RIPK1/3 Targeting Activity” (J Med Chem, 2023):
Calls of active or inactive are those of the source. The calls are words filed in the database; no cut-off is given here.

Legend:
[1] = tested on: HT-29; assay: Anti-necroptic activity against human HT-29 cells assessed as inhibition of TSZ (TNFalpha, Smac mimetic and z-VAD-FMK) induced necroptosis pretreated with compound followed by TSZ stimulation for 16 to 18 hrs by CellTiter-Glo Luminescent cell viability assay; type: functional, cell-based
[2] = Cytotoxicity against human HT-29 cells assessed as reduction in cell viability incubated for 16 to 24 hrs by CellTiter-Glo Luminescent cell viability assay; type: toxicity, cell-based; settings: time 16-24 hrs
[3] = target: Receptor-interacting serine/threonine-protein kinase 3 (Homo sapiens, UniProt Q9Y572); assay: Binding affinity to recombinant RIPK3 (unknown origin) assessed as dissociation constant incubated for 1 hr by KINOMEscanTM assay
Sequence of Receptor-interacting serine/threonine-protein kinase 3 (Q9Y572 whole entry): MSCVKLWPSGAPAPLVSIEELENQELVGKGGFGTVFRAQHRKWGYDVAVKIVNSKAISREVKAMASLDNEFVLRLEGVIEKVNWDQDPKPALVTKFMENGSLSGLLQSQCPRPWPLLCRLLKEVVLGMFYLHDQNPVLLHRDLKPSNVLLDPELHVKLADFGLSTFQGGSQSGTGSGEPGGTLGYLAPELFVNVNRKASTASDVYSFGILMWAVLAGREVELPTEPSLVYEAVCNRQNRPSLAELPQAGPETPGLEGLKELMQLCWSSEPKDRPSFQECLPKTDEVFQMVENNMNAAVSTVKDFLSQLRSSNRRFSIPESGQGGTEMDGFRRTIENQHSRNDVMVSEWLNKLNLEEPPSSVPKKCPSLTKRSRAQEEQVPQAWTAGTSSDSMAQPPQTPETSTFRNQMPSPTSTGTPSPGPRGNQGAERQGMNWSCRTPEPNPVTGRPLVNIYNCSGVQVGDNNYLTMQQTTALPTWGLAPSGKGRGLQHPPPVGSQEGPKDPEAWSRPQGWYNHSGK

[4] = target: T1, Receptor-interacting serine/threonine-protein kinase 1 (Homo sapiens, UniProt Q13546); assay: Binding affinity to recombinant RIPK1 (unknown origin) assessed as dissociation constant incubated for 1 hr by KINOMEscanTM assay
T1 sequence (Q13546 whole entry): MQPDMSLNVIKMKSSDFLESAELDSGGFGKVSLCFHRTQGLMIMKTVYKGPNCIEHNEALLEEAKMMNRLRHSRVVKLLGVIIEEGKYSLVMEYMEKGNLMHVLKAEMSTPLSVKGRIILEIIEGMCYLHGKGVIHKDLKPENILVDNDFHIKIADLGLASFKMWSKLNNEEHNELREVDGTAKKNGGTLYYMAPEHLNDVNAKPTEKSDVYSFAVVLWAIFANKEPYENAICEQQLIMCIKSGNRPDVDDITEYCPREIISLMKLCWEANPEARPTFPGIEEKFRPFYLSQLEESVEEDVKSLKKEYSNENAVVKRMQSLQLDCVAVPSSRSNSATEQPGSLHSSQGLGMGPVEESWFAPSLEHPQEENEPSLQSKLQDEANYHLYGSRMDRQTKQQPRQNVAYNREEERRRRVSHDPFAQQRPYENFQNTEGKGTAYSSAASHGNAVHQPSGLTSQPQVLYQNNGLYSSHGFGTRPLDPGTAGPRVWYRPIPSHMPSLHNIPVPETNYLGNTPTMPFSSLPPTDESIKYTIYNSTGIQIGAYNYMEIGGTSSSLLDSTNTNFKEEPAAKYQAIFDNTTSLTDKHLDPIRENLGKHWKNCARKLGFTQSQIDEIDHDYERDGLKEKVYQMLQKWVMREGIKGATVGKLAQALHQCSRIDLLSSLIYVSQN

[5] = tested on: HT-29; assay: Anti-necroptic activity in TSZ (TNFalpha, Smac mimetic and z-VAD-FMK) induced necroptosis in human HT-29 cells assessed as increase in cell viability preincubated for 30 mins pretreated followed by TSZ stimulation and measured after 16 hrs by MTT assay; type: functional, cell-based
[6] = tested on: HT-29; assay: Anti-apoptotic activity against human HT-29 cells assessed as inhibition of TC (human TNFalpha, cycloheximide) induced apoptosis upto 20 uM pretreated with compound followed by TC stimulation for 36 hrs by CellTiter-Glo Luminescent cell viability assay; type: functional, cell-based
[7] = tested on: Mus musculus; assay: Anti-inflammatory activity against C57BL/6J mouse model of TNFalpha-induced systemic inflammatory response syndrome (SIRS) assessed as decrease in IL-6 level in spleen at 5 mg/kg,po 2 hrs prior to mTNFalpha and z-VAD-FMK stimulation for 8 hrs by ELISA; type: functional, organism-based; settings: time 10.0 hrs
[8] = tested on: Mus musculus; assay: Anti-inflammatory activity against C57BL/6J mouse model of TNFalpha-induced systemic inflammatory response syndrome (SIRS) assessed as decrease in IL-6 level in kidney at 5 mg/kg,po 2 hrs prior to mTNFalpha and z-VAD-FMK stimulation for 8 hrs by ELISA; type: functional, organism-based; settings: time 10.0 hrs
[9] = tested on: Mus musculus; assay: Anti-inflammatory activity against C57BL/6J mouse model of TNFalpha-induced systemic inflammatory response syndrome (SIRS) assessed as decrease in IL-6 level in intestine at 5 mg/kg,po 2 hrs prior to mTNFalpha and z-VAD-FMK stimulation for 8 hrs by ELISA; type: functional, organism-based; settings: time 10.0 hrs
[10] = tested on: Mus musculus; assay: Anti-inflammatory activity against C57BL/6J mouse model of TNFalpha-induced systemic inflammatory response syndrome (SIRS) assessed as decrease in IL-6 level in lung at 5 mg/kg,po 2 hrs prior to mTNFalpha and z-VAD-FMK stimulation for 8 hrs by ELISA; type: functional, organism-based; settings: time 10.0 hrs
[11] = tested on: Mus musculus; assay: Anti-inflammatory activity against C57BL/6J mouse model of TNFalpha-induced systemic inflammatory response syndrome (SIRS) assessed as decrease in IL-1beta level in kidney at 5 mg/kg,po 2 hrs prior to mTNFalpha and z-VAD-FMK stimulation for 8 hrs by ELISA; type: functional, organism-based; settings: time 10.0 hrs
[12] = tested on: Mus musculus; assay: Anti-inflammatory activity against C57BL/6J mouse model of TNFalpha-induced systemic inflammatory response syndrome (SIRS) assessed as decrease in IL-1beta level in liver at 5 mg/kg,po 2 hrs prior to mTNFalpha and z-VAD-FMK stimulation for 8 hrs by ELISA; type: functional, organism-based; settings: time 10.0 hrs
[13] = tested on: Mus musculus; assay: Anti-inflammatory activity against C57BL/6J mouse model of TNFalpha-induced systemic inflammatory response syndrome (SIRS) assessed as decrease in IL-1beta level in lung at 5 mg/kg,po 2 hrs prior to mTNFalpha and z-VAD-FMK stimulation for 8 hrs by ELISA; type: functional, organism-based; settings: time 10.0 hrs
[14] = tested on: Mus musculus; assay: Anti-inflammatory activity against C57BL/6J mouse model of TNFalpha-induced systemic inflammatory response syndrome (SIRS) assessed as decrease in IL-1beta level in brain at 5 mg/kg,po 2 hrs prior to mTNFalpha and z-VAD-FMK stimulation for 8 hrs by ELISA; type: functional, organism-based; settings: time 10.0 hrs
[15] = tested on: Mus musculus; assay: Anti-inflammatory activity against C57BL/6J mouse model of TNFalpha-induced systemic inflammatory response syndrome (SIRS) assessed as decrease in IL-6 level in liver at 5 mg/kg,po 2 hrs prior to mTNFalpha and z-VAD-FMK stimulation for 8 hrs by ELISA; type: functional, organism-based; settings: time 10.0 hrs
[16] = tested on: Mus musculus; assay: Anti-inflammatory activity against C57BL/6J mouse model of TNFalpha-induced systemic inflammatory response syndrome (SIRS) assessed as increase in body temperature at 5 mg/kg,po 2 hrs prior to mTNFalpha and z-VAD-FMK stimulation and measured upto 18 hrs by electric thermometer analysis; type: functional, organism-based; settings: time 20.0 hrs
[17] = tested on: Mus musculus; assay: Anti-inflammatory activity against C57BL/6J mouse model of TNFalpha-induced systemic inflammatory response syndrome (SIRS) assessed as decrease in IL-6 level in heart at 5 mg/kg,po 2 hrs prior to mTNFalpha and z-VAD-FMK stimulation for 8 hrs by ELISA; type: functional, organism-based; settings: time 10.0 hrs
[18] = tested on: Mus musculus; assay: Anti-inflammatory activity against C57BL/6J mouse model of TNFalpha-induced systemic inflammatory response syndrome (SIRS) assessed as decrease in IL-1beta level in heart at 5 mg/kg,po 2 hrs prior to mTNFalpha and z-VAD-FMK stimulation for 8 hrs by ELISA; type: functional, organism-based; settings: time 10.0 hrs
[19] = tested on: Mus musculus; assay: Anti-inflammatory activity against C57BL/6J mouse model of TNFalpha-induced systemic inflammatory response syndrome (SIRS) assessed as increase in survival rate at 5 mg/kg,po 2 hrs prior to mTNFalpha and z-VAD-FMK stimulation and measured upto 24 hrs; type: functional; settings: time 26 hrs
[20] = tested on: Mus musculus; assay: Anti-inflammatory activity against C57BL/6J mouse model of TNFalpha-induced systemic inflammatory response syndrome (SIRS) assessed as decrease in IL-6 level in brain at 5 mg/kg,po 2 hrs prior to mTNFalpha and z-VAD-FMK stimulation for 8 hrs by ELISA; type: functional, organism-based; settings: time 10.0 hrs
[21] = tested on: Mus musculus; assay: Anti-inflammatory activity against C57BL/6J mouse model of TNFalpha-induced systemic inflammatory response syndrome (SIRS) assessed as decrease in IL-1beta level in intestine at 5 mg/kg,po 2 hrs prior to mTNFalpha and z-VAD-FMK stimulation for 8 hrs by ELISA; type: functional, organism-based; settings: time 10.0 hrs
[22] = tested on: Mus musculus; assay: Anti-inflammatory activity against C57BL/6J mouse model of TNFalpha-induced systemic inflammatory response syndrome (SIRS) assessed as decrease in IL-1beta level in spleen at 5 mg/kg,po 2 hrs prior to mTNFalpha and z-VAD-FMK stimulation for 8 hrs by ELISA; type: functional, organism-based; settings: time 10.0 hrs

Row | SMILES | EC50 [1] [µM] | CC50 [2] [µM] | further results
1 | O=C(Cc1cccc(OC(F)(F)F)c1)Nc1cc(-c2cccc3sc(NC(=O)C4CC4)nc23)ccc1F | > 20 | > 10 | –
2 | O=C(Cc1cccc(OC(F)(F)F)c1)Nc1cc(C#Cc2ccc3nc(NC(=O)C4CC4)sc3c2)ccc1F | 0.2 | > 10 | –
3 | O=C(Cc1cccc(OC(F)(F)F)c1)Nc1cc(C(=O)c2ccc3nc(NC(=O)C4CC4)sc3c2)ccc1F | 2.04 | > 10 | –
4 | O=C(Cc1cccc(OC(F)(F)F)c1)Nc1cccc(-c2ccc3nc(NC(=O)C4CC4)sc3c2)c1F | 0.34 | > 10 | Kd [3]: > 5 µM; Kd [4]: 0.14 µM
5 | O=C(Cc1cccc(OC(F)(F)F)c1)Nc1cc(S(=O)(=O)c2ccc3nc(NC(=O)C4CC4)sc3c2)ccc1F | > 20 | > 10 | –
6 | O=C(Cc1cccc(OC(F)(F)F)c1)Nc1cc(COc2ccc3nc(NC(=O)C4CC4)sc3c2)ccc1F | 0.9 | > 10 | –
7 | O=C(Cc1cccc(OC(F)(F)F)c1)Nc1cc(NC(=O)c2ccc3nc(NC(=O)C4CC4)sc3c2)ccc1F | 3.13 | > 10 | –
8 | O=C(Cc1cccc(OC(F)(F)F)c1)Nc1cc(C(O)c2ccc3nc(NC(=O)C4CC4)sc3c2)ccc1F (stereo not given) | 0.71 | > 10 | –
9 | O=C(Cc1cccc(OC(F)(F)F)c1)Nc1cc(-c2cccc3nc(NC(=O)C4CC4)sc23)ccc1F | > 20 | > 10 | –
10 | O=C(Cc1cccc(C(F)(F)F)c1)Nc1cc(Oc2cc3sc(NC(=O)C4CC4)nc3cc2F)ccc1F | – | – | EC50 [5]: 0.008 µM
11 | O=C(Cc1cccc(OC(F)(F)F)c1)Nc1cc(-c2ccc3sc(NC(=O)C4CC4)nc3c2)ccc1F | > 20 | > 10 | –
12 | O=C(Cc1cccc(OC(F)(F)F)c1)Nc1cc(Cc2ccc3nc(NC(=O)C4CC4)sc3c2)ccc1F | 0.31 | > 10 | –
13 | CN(c1ccc(F)c(NC(=O)Cc2cccc(OC(F)(F)F)c2)c1)c1ccc2nc(NC(=O)C3CC3)sc2c1 | 0.75 | > 10 | –
14 | O=C(Nc1cccc(C(F)(F)F)c1)Nc1cc(Oc2ccc3nc(NC(=O)C4CC4)sc3c2)ccc1F | – | – | Activity [6]: Active
15 | O=C(Cc1cccc(OC(F)(F)F)c1)Nc1ccc(-c2ccc3nc(NC(=O)C4CC4)sc3c2)cc1F | > 20 | > 10 | –
16 | O=C(Cc1cccc(OC(F)(F)F)c1)Nc1cc(Sc2ccc3nc(NC(=O)C4CC4)sc3c2)ccc1F | 1.56 | > 10 | –
17 | O=C(Cc1cccc(OC(F)(F)F)c1)Nc1cc(Oc2ccc3nc(NC(=O)C4CC4)sc3c2)ccc1F | – | – | Activity [7]: inactive; Activity [8]: inactive; Activity [9]: inactive; Activity [10]: inactive; Activity [11]: inactive; Activity [12]: inactive; Activity [13]: inactive; Activity [14]: inactive; Activity [15]: inactive; Activity [16]: inactive; Activity [17]: inactive; Activity [18]: inactive; survival at 5 mg/kg [19]: 40%; Activity [6]: Active; Activity [20]: inactive; Activity [21]: inactive; Activity [22]: inactive
18 | O=C(Cc1cccc(OC(F)(F)F)c1)Nc1cc(Nc2ccc3nc(NC(=O)C4CC4)sc3c2)ccc1F | 1.24 | > 10 | –
19 | O=C(Cc1cccc(OC(F)(F)F)c1)Nc1c(F)cccc1-c1ccc2nc(NC(=O)C3CC3)sc2c1 | > 20 | > 10 | –
20 | O=C(Cc1cccc(OC(F)(F)F)c1)Nc1cc(C(=O)Nc2ccc3nc(NC(=O)C4CC4)sc3c2)ccc1F | 1.26 | > 10 | –
